One test deals with HMVEC spheroids. As to the kind of experiment: Spheroid sprouting assay. Format: cell-based, human. Particulars: FGF-2 10 ng/mL, peptide 3 µM, 16 hours; n = 5 experiments. The procedure:
A 1:5 mixture of endothelial cells (4 × 10^4 cells/mL) and methylcellulose (Sigma-Aldrich, Saint Louis, MO, USA; 12 mg/mL in EBM™-2 basal medium) in EBM™-2 cell culture medium was prepared. Drops of 1 × 10^3 HMVECs were plated on a petri dish and allowed to form single spheroids in hanging droplets at 37 °C, 5% CO2 for 24 h. Spheroids were collected, sedimented by centrifugation and resuspended in a mixture of 24 mg/mL methylcellulose in basal EBM™-2, 1 mg/mL collagen type I (BD Biosciences, San Jose, CA, USA), 2.5 mg/mL NaHCO3 and 10 mM NaOH. The suspension was plated in a 96-well plate and the collagen was allowed to polymerize at 37 °C, 5% CO2 for 30 min. Spheroids were left untreated or stimulated with 0.3 or 3 µM of CXCL9(74-103) or 3 µM of CXCL9(86-103) for 15 min prior to addition of 10 ng/mL FGF-2 or 10 ng/mL EGF in EBM™-2 + 3% (v/v) FCS. In some experiments, HMVECs were pretreated with heparinase II (vide infra). After 16 hours, spheroid sprouting was assessed with an inverted Axiovert 200M microscope (Zeiss, Germany) through a 10× objective. The average number of sprouts was calculated and the average sprout length per spheroid was measured using Fiji software.
Sprouting experiments examining the dependency on HS binding for the inhibitory action of CXCL9(74-103) were performed as described above (vide supra). […]

The conditions of test [1]: reference not given at the value; read-out: KD, heparin binding; cited from earlier work. The source says: In our present study, we wanted to explore the potential of CXCL9(74-103), a high affinity GAG-binding peptide, to interfere with angiogenesis by targeting growth factor-induced signaling cascades and associated processes. […] The obtained KD value lies within the range of the concentrations that were applied in the different in vivo and in vitro assays reported here. FGF-2-mediated proliferation, chemotaxis and sprouting in vitro was diminished by CXCL9(74-103). Also in vivo, CXCL9(74-103) treatment attenuated FGF-2-mediated neovascularization in the Matrigel plug assay. The inhibitory mechanism responsible for countering FGF-2 could be that (1) by direct interaction with FGF-2, CXCL9(74-103) can t ...

The test system of another test is phospho-ERK1/2. Put plainly: Signal transduction assay, VEGF165-induced ERK phosphorylation in MECs (ELISA). The test is classed as cell-based, mouse. Particulars: murine VEGF165 5 ng/mL 5 min, peptide 1 µM, n ≥ 3. The protocol: HMVECs and MECs were seeded in 6-well plates at 1.25 × 10^5 cells/well in their respective culture medium. Once the cell density reached 70–80% confluency, the cells were starved in serum-free medium overnight. Fifteen minutes prior to stimulation, cells were incubated with various concentrations of CXCL9(74-103) or CXCL9(86-103) in 0.5% (v/v) BSA in MCDB131 or DMEM medium (assay medium for HMVECs and MECs, respectively) at 37 °C. HMVECs and MECs were stimulated with assay medium alone or supplemented with 10 ng/mL EGF or 5 ng/mL murine VEGF165 at 37 °C for 15 or 5 min, respectively. Then, the cells were placed on ice, washed with ice-cold PBS and 90 µL of lysis buffer [1% (v/v) protease inhibitor cocktail, phosphatase inhibitor cocktail 2 and 3 (all Sigma-Aldrich) in 1 mM ethylenediaminetetraacetic acid (EDTA), 0.5% (v/v) Triton™ X-100, 5 mM NaF, 6 M urea in PBS] was added per well. […] The amount of phospho-ERK1/2 in the cell lysates was determined using an ERK1 (Thr202/Tyr204)/ERK2 (Thr185/Tyr187) ELISA duoset (R&D Systems) according to the manufacturer’s instructions. The amount of phosphorylated ERK was normalized to the total protein content in the samples measured by the Pierce™ bicinchoninic acid (BCA) protein assay kit (Thermo Fisher Scientific).

For test [2], the system named is diabetes-induced vascular permeability, Sprague-Dawley rats. Put plainly: Retinal vascular permeability in streptozotocin-induced diabetic rats. Format: in vivo, rat. As to conditions: intravitreal, equimolar CXCL9(74-103) 30 µg or CXCL9(86-103) 18 µg, two weeks, n = 12–15. The procedure: Male Sprague-Dawley rats (210–240 g) were fasted overnight and injected intraperitoneally (i.p.) with streptozotocin (55 mg/kg body weight, dissolved in citrate buffer, pH 4.5) to induce diabetes. After 3 days, the animals were anesthetized, diabetes was confirmed and the vitreous of the right eye was injected with equimolar amounts of CXCL9(74-103) (30 µg), CXCL9(86-103) (18 µg) or PBS (5 µL/injection). Diabetes-induced breakdown of the blood-retinal barrier as a consequence of increased vascular permeability was evaluated in retinas two weeks after streptozotocin injection, as previously described. Briefly, 30 min prior to sacrifice, fluorescein isothiocyanate (FITC)-conjugated dextran of 3-5 kDa (Sigma-Aldrich) was intravenously (i.v.) injected. After collection of a blood sample, rats were perfused with PBS. The retinas were excised, weighed and homogenized. The fluorescence in the retina lysates was measured using a SpectraMax® Gemini™ XPS system. For normalization of the data, the following equation was used to express the obtained results: Retinal FITC-dextran (µg)/retinal weight (g) Plasma FITC-dextran concentration (µg/µL) × circulation time (h)

“Also recorded” adds a separate entry of the source.

This is an account of results in article PMC8534003, “The Chemokine-Based Peptide, CXCL9(74-103), Inhibits Angiogenesis by Blocking Heparan Sulfate Proteoglycan-Mediated Signaling of Multiple Endothelial Growth Factors” (Cancers, 2021).

For the sequence KKVLKVRKSQRSRQKKTT [CXCL9(86-103)], the “sprout outgrowth induced by FGF-2” value with HMVEC spheroids is reported as “had no effect on sprout outgrowth induced by FGF-2”. The Kd – broadly, a measure of binding affinity in units of concentration – in test [1] is 820 nM. Further, the “VEGF165-induced ERK phosphorylation” value with phospho-ERK1/2 is reported as “did not result in a reduction of VEGF165-induced ERK phosphorylation”. Besides, the “retinal vascular permeability (FITC-dextran leakage)” value in test [2] is recorded as “tended to decrease the vascular leakage, but this was not significant; also recorded: could not significantly improve diabetes-induced vascular leakage”.
